Data as given in the NIST ThermoML archive (doi:10.1021/je7000667).
± gives the expanded uncertainty stated by the source.

Experiment: xn = mol fraction of the nth substance listed
Conditions: Gas, Burnett expansion method

FC(C(F)(F)F)C(F)(F)F [1,1,1,2,3,3,3-heptafluoropropane] + FCF
Conditions	mass density [kg/m3]
360 K, 221.36 kPa, x2 = 0.5155	8.234 ± 0.009
360 K, 239.67 kPa, x2 = 0.2648	11.408 ± 0.012
360 K, 243.21 kPa, x2 = 0.7809	6.433 ± 0.007
360 K, 303.15 kPa, x2 = 0.5155	11.36 ± 0.01
360 K, 327.36 kPa, x2 = 0.2648	15.74 ± 0.014
360 K, 333.32 kPa, x2 = 0.7809	8.875 ± 0.008
360 K, 414 kPa, x2 = 0.5155	15.673 ± 0.012
360 K, 445.38 kPa, x2 = 0.2648	21.715 ± 0.016
360 K, 455.62 kPa, x2 = 0.7809	12.244 ± 0.01
360 K, 563.21 kPa, x2 = 0.5155	21.622 ± 0.015
360 K, 602.72 kPa, x2 = 0.2648	29.96 ± 0.02
360 K, 620.87 kPa, x2 = 0.7809	16.892 ± 0.012
360 K, 761.94 kPa, x2 = 0.5155	29.83 ± 0.019
360 K, 809.48 kPa, x2 = 0.2648	41.334 ± 0.026
360 K, 842.09 kPa, x2 = 0.7809	23.305 ± 0.016
360 K, 1023.1 kPa, x2 = 0.5155	41.153 ± 0.025
360 K, 1075.4 kPa, x2 = 0.2648	57.027 ± 0.034
360 K, 1134.1 kPa, x2 = 0.7809	32.152 ± 0.021
360 K, 1359.1 kPa, x2 = 0.5155	56.775 ± 0.034
360 K, 1407.1 kPa, x2 = 0.2648	78.678 ± 0.047
360 K, 1513.7 kPa, x2 = 0.7809	44.316 ± 0.028
360 K, 1778.5 kPa, x2 = 0.5155	78.326 ± 0.047
360 K, 1801.2 kPa, x2 = 0.2648	108.549 ± 0.066
360 K, 1995.5 kPa, x2 = 0.7809	61.139 ± 0.038
360 K, 2234.4 kPa, x2 = 0.2648	149.76 ± 0.096
360 K, 2279 kPa, x2 = 0.5155	108.059 ± 0.067
360 K, 2584.7 kPa, x2 = 0.7809	84.349 ± 0.058
360 K, 2647.8 kPa, x2 = 0.2648	206.618 ± 0.12
360 K, 2834.8 kPa, x2 = 0.5155	149.078 ± 0.097
370 K, 180 kPa, x2 = 0.2648	8.265 ± 0.011
370 K, 227.73 kPa, x2 = 0.5155	8.23 ± 0.009
370 K, 246.7 kPa, x2 = 0.2648	11.403 ± 0.012
370 K, 250.16 kPa, x2 = 0.7809	6.429 ± 0.007
370 K, 312.04 kPa, x2 = 0.5155	11.355 ± 0.01
370 K, 337.19 kPa, x2 = 0.2648	15.732 ± 0.013
370 K, 343.02 kPa, x2 = 0.7809	8.87 ± 0.008
370 K, 426.48 kPa, x2 = 0.5155	15.665 ± 0.012
370 K, 459.23 kPa, x2 = 0.2648	21.704 ± 0.016
370 K, 469.2 kPa, x2 = 0.7809	12.238 ± 0.01
370 K, 580.8 kPa, x2 = 0.5155	21.611 ± 0.015
370 K, 622.4 kPa, x2 = 0.2648	29.945 ± 0.02
370 K, 639.98 kPa, x2 = 0.7809	16.884 ± 0.012
370 K, 786.9 kPa, x2 = 0.5155	29.815 ± 0.019
370 K, 837.7 kPa, x2 = 0.2648	41.314 ± 0.026
370 K, 869.16 kPa, x2 = 0.7809	23.293 ± 0.015
370 K, 1058.9 kPa, x2 = 0.5155	41.133 ± 0.025
370 K, 1116.3 kPa, x2 = 0.2648	56.999 ± 0.034
370 K, 1172.8 kPa, x2 = 0.7809	32.136 ± 0.021
370 K, 1411 kPa, x2 = 0.5155	56.746 ± 0.034
370 K, 1467.3 kPa, x2 = 0.2648	78.639 ± 0.046
370 K, 1569.4 kPa, x2 = 0.7809	44.294 ± 0.028
370 K, 1854.7 kPa, x2 = 0.5155	78.287 ± 0.046
370 K, 1891.2 kPa, x2 = 0.2648	108.495 ± 0.063
370 K, 2076.9 kPa, x2 = 0.7809	61.109 ± 0.038
370 K, 2371.1 kPa, x2 = 0.2648	149.686 ± 0.087
370 K, 2392.6 kPa, x2 = 0.5155	108.005 ± 0.064
370 K, 2705.2 kPa, x2 = 0.7809	84.308 ± 0.057
370 K, 2859.2 kPa, x2 = 0.2648	206.516 ± 0.12
370 K, 3006.5 kPa, x2 = 0.5155	149.004 ± 0.086
390 K, 190.02 kPa, x2 = 0.2648	8.257 ± 0.01
390 K, 240.4 kPa, x2 = 0.5155	8.222 ± 0.009
390 K, 260.65 kPa, x2 = 0.2648	11.392 ± 0.011
390 K, 264.02 kPa, x2 = 0.7809	6.423 ± 0.007
390 K, 329.74 kPa, x2 = 0.5155	11.344 ± 0.01
390 K, 356.74 kPa, x2 = 0.2648	15.716 ± 0.013
390 K, 362.31 kPa, x2 = 0.7809	8.862 ± 0.008
390 K, 451.27 kPa, x2 = 0.5155	15.65 ± 0.012
390 K, 486.71 kPa, x2 = 0.2648	21.683 ± 0.016
390 K, 496.17 kPa, x2 = 0.7809	12.226 ± 0.009
390 K, 615.63 kPa, x2 = 0.5155	21.59 ± 0.015
390 K, 661.34 kPa, x2 = 0.2648	29.916 ± 0.02
390 K, 677.89 kPa, x2 = 0.7809	16.867 ± 0.012
390 K, 836.32 kPa, x2 = 0.5155	29.786 ± 0.019
390 K, 893.34 kPa, x2 = 0.2648	41.274 ± 0.025
390 K, 922.76 kPa, x2 = 0.7809	23.271 ± 0.015
390 K, 1129.5 kPa, x2 = 0.5155	41.093 ± 0.025
390 K, 1196.7 kPa, x2 = 0.2648	56.943 ± 0.034
390 K, 1249.8 kPa, x2 = 0.7809	32.105 ± 0.02
390 K, 1513 kPa, x2 = 0.5155	56.692 ± 0.034
390 K, 1584.8 kPa, x2 = 0.2648	78.563 ± 0.046
390 K, 1679.1 kPa, x2 = 0.7809	44.251 ± 0.027
390 K, 2003.7 kPa, x2 = 0.5155	78.212 ± 0.047
390 K, 2065.6 kPa, x2 = 0.2648	108.39 ± 0.064
390 K, 2236.4 kPa, x2 = 0.7809	61.05 ± 0.038
390 K, 2613.6 kPa, x2 = 0.5155	107.901 ± 0.064
390 K, 2634 kPa, x2 = 0.2648	149.541 ± 0.091
390 K, 2940 kPa, x2 = 0.7809	84.226 ± 0.052
390 K, 3260.4 kPa, x2 = 0.2648	206.316 ± 0.12
390 K, 3338.4 kPa, x2 = 0.5155	148.86 ± 0.088
410 K, 105.73 kPa, x2 = 0.2648	4.333 ± 0.009
410 K, 106.47 kPa, x2 = 0.7809	2.443 ± 0.005
410 K, 133.75 kPa, x2 = 0.5155	4.316 ± 0.007
410 K, 145.48 kPa, x2 = 0.2648	5.979 ± 0.009
410 K, 146.65 kPa, x2 = 0.7809	3.371 ± 0.005
410 K, 184.04 kPa, x2 = 0.5155	5.954 ± 0.008
410 K, 199.99 kPa, x2 = 0.2648	8.248 ± 0.01
410 K, 201.86 kPa, x2 = 0.7809	4.651 ± 0.006
410 K, 253.05 kPa, x2 = 0.5155	8.214 ± 0.008
410 K, 274.54 kPa, x2 = 0.2648	11.38 ± 0.011
410 K, 277.79 kPa, x2 = 0.7809	6.417 ± 0.006
410 K, 347.32 kPa, x2 = 0.5155	11.332 ± 0.01
410 K, 376.14 kPa, x2 = 0.2648	15.701 ± 0.013
410 K, 381.49 kPa, x2 = 0.7809	8.853 ± 0.008
410 K, 475.89 kPa, x2 = 0.5155	15.634 ± 0.012
410 K, 513.94 kPa, x2 = 0.2648	21.661 ± 0.015
410 K, 522.95 kPa, x2 = 0.7809	12.214 ± 0.009
410 K, 650.2 kPa, x2 = 0.5155	21.568 ± 0.014
410 K, 699.84 kPa, x2 = 0.2648	29.885 ± 0.019
410 K, 715.45 kPa, x2 = 0.7809	16.85 ± 0.012
410 K, 885.1 kPa, x2 = 0.5155	29.756 ± 0.019
410 K, 948.18 kPa, x2 = 0.2648	41.232 ± 0.025
410 K, 975.71 kPa, x2 = 0.7809	23.247 ± 0.015
410 K, 1199.1 kPa, x2 = 0.5155	41.051 ± 0.025
410 K, 1275.5 kPa, x2 = 0.2648	56.886 ± 0.033
410 K, 1325.1 kPa, x2 = 0.7809	32.073 ± 0.02
410 K, 1613 kPa, x2 = 0.5155	56.634 ± 0.033
410 K, 1699.6 kPa, x2 = 0.2648	78.483 ± 0.045
410 K, 1786.7 kPa, x2 = 0.7809	44.206 ± 0.027
410 K, 2149.2 kPa, x2 = 0.5155	78.132 ± 0.045
410 K, 2235 kPa, x2 = 0.2648	108.28 ± 0.061
410 K, 2392.4 kPa, x2 = 0.7809	60.988 ± 0.037
410 K, 2828 kPa, x2 = 0.5155	107.791 ± 0.062
410 K, 2887.1 kPa, x2 = 0.2648	149.389 ± 0.085
410 K, 3168.3 kPa, x2 = 0.7809	84.141 ± 0.051
410 K, 3641.6 kPa, x2 = 0.2648	206.107 ± 0.12
410 K, 3658.2 kPa, x2 = 0.5155	148.709 ± 0.087
